Data as given in article PMC8027564, “A novel luminescence-based β-arrestin recruitment assay for unmodified receptors” (The Journal of Biological Chemistry, 2021).
Counter-ions that a name gives are not always drawn.

Legend:
[1] = test system: Hek293 cells without cotransfection of any receptor; experiment: MeNArC and EeNArC negative controls, Hek293 without cotransfection of any receptor; type: cell-based, human; conditions: 10 µM agonist
MOR = MOR (Homo sapiens, UniProt P35372); type: cell-based
MOR, sequence (P35372 whole entry): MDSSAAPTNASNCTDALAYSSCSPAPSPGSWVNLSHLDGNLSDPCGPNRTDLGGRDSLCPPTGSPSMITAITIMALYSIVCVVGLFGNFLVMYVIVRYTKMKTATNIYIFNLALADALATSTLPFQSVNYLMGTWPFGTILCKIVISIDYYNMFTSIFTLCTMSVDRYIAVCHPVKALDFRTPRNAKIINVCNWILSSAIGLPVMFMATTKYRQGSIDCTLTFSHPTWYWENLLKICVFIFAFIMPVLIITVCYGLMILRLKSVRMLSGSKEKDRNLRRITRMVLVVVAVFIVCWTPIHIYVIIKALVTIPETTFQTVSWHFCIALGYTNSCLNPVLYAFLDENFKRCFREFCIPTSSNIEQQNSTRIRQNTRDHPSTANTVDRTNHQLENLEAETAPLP
MOR, sequence (P32121 whole entry partner): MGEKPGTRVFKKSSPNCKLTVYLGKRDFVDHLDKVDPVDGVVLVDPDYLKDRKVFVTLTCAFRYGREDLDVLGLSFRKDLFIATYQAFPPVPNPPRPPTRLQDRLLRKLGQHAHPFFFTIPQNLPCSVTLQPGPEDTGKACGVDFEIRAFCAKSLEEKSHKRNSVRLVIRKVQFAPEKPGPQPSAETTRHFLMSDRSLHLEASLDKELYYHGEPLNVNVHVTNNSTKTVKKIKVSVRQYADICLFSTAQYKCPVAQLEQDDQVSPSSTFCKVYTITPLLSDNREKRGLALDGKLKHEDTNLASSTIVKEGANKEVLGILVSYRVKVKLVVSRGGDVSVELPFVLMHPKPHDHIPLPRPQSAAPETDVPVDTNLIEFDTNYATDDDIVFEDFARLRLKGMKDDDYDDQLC

MOR 11S/T-A = experiment: MeNArC β-arrestin2 recruitment assay, MOR 11S/T-A mutant, Hek293; type: cell-based
D2R = target: T1, D2R (Homo sapiens, UniProt P14416); experiment: cell-based; type: cell-based
T1 construct: expressed in transfected cells; host or cells: Hek293 (D2R cotransfected with GRK2, MeN and ArC)
T1 sequence (P14416 1-414 isoform P14416-2): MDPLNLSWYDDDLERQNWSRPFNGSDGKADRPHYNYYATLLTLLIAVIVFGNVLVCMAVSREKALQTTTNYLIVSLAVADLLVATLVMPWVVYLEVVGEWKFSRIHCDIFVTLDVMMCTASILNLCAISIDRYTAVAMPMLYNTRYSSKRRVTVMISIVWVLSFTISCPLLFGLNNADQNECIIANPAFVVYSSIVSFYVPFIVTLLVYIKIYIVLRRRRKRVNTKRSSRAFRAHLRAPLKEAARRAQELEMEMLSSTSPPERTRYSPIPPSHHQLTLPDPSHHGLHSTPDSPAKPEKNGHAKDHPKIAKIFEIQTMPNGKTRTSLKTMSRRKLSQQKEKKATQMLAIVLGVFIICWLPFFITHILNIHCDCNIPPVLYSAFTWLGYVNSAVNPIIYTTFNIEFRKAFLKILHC

AT1R [2] = target: T2, AT1R (Homo sapiens, UniProt P30556); experiment: MeNArC β-arrestin membrane recruitment assay, unmodified AT1R, Hek293; type: cell-based
T2 construct: signal peptide (N); expressed in transfected cells; host or cells: Hek293
T2 sequence (P30556 1-359): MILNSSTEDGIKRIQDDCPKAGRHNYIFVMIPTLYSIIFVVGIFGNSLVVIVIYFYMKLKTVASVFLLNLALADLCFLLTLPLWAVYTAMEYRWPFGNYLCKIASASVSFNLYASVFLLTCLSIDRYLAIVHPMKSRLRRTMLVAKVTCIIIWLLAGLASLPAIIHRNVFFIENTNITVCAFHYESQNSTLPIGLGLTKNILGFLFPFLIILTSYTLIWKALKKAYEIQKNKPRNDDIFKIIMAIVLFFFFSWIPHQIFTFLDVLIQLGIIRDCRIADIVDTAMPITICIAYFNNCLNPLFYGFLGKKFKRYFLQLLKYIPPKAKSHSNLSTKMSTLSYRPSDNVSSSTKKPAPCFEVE

FKBP / FRB = target: T3, FKBP / FRB (UniProt P42345+Q62658); experiment: rapamycin-induced dimerization of FKBP and FRB fused to the N- and C-terminal NanoLuc fragments; type: cell-based; conditions: 50 nM rapamycin; Hek293 cotransfected with both fragments
T3 construct: expressed in transfected cells; host or cells: Hek293
T3 sequence (Q62658 3-108): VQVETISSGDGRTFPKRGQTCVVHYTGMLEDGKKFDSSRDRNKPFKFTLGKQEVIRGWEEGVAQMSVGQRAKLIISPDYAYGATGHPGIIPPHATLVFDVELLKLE
T3 sequence (P42345 2012-2144): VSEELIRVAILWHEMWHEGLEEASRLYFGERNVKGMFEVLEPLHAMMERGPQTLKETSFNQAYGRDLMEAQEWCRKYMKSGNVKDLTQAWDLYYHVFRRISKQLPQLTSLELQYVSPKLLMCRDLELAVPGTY

AT1R [3] = target: T2, AT1R; experiment: EeNArC β-arrestin early endosome recruitment assay, unmodified AT1R, Hek293; type: cell-based; conditions: 450 mM sucrose, Ang II, early endosomes

In the case of CC[C@H](C)[C@H](NC(=O)[C@H](Cc1ccc(O)cc1)NC(=O)[C@@H](NC(=O)[C@H](CCCNC(=N)N)NC(=O)[C@@H](N)CC(=O)O)C(C)C)C(=O)N[C@@H](Cc1c[nH]cn1)C(=O)N1CCC[C@H]1C(=O)N[C@@H](Cc1ccccc1)C(=O)O [Ang II, Angiotensin II], the “response in MeNArC and EeNArC assays without receptor” value [1] is reported as “no response was observed”.

C[C@@H](NC(=O)[C@@H](N)Cc1ccc(O)cc1)C(=O)NCC(=O)N(C)[C@@H](Cc1ccccc1)C(=O)NCCO [DAMGO, [D-Ala^2, N-MePhe^4, Gly-ol]-enkephalin] was tested, and the EC80 (MOR) was 60 nM, the “response in MeNArC and EeNArC assays without receptor” value [1] was “no response was observed” and the pEC50 ± SD (MOR 11S/T-A; MOR 11S/T-A, β-arrestin2) was 6.82 ± 0.19. The “efficacy for MOR 11S/T-A compared with WT MOR” value (MOR 11S/T-A; from fold changes) was 65%.

For CCCN1CCCC(c2cccc(O)c2)C1 (stereo not shown) [PPP, (3-hydroxyphenyl)-N-propylpiperidine], the “efficacy compared with dopamine” value (D2R) was 10%.

For CC(C)C[C@H]1C(=O)N2CCC[C@H]2[C@]2(O)O[C@](NC(=O)[C@@H]3C=C4c5cccc6[nH]c(Br)c(c56)C[C@H]4N(C)C3)(C(C)C)C(=O)N12 [bromocriptine], the EC50 (D2R) was 66.1 nM and the “efficacy compared with dopamine” value (D2R) was 46%.

For NCCc1ccc(O)c(O)c1 [dopamine, Dopamine hydrochloride], the “response in MeNArC and EeNArC assays without receptor” value [1] was “no response was observed”.

In the case of CCCc1nc(C(C)(C)O)c(C(=O)O)n1Cc1ccc(-c2ccccc2-c2nnn[nH]2)cc1 [olmesartan], the “reversal of agonist-induced β-arrestin recruitment by antagonist added after agonist” value (AT1R [2]; 0.1 μM Ang II pretreatment, absence or presence of sucrose) is reported as “could not be reversed”.

CO[C@H]1C[C@@H]2CC[C@@H](C)[C@@](O)(O2)C(=O)C(=O)N2CCCC[C@H]2C(=O)O[C@H]([C@H](C)C[C@@H]2CC[C@@H](O)[C@H](OC)C2)CC(=O)[C@H](C)/C=C(\C)[C@@H](O)[C@@H](OC)C(=O)[C@H](C)C[C@H](C)/C=C/C=C/C=C/1C [rapamycin] was tested, and the “increase of basal luminescence signal by addition of rapamycin” value (FKBP / FRB) was about 30 fold.

In the case of OC[C@H]1O[C@@](CO)(O[C@H]2O[C@H](CO)[C@@H](O)[C@H](O)[C@H]2O)[C@@H](O)[C@@H]1O [sucrose], the “effect of sucrose on agonist effect” value (AT1R [3]) is reported as “dramatically blunted” and the “effect of sucrose on agonist response” value (AT1R [2]; 450 mM sucrose, Ang II response, plasma membrane) is reported as “no effect on agonist response”.

With CCN1CCCC1CNC(=O)c1cc(S(N)(=O)=O)ccc1OC (stereo not shown) [sulpiride] the “effect of antagonist on agonist-induced luminescence” value (D2R) was “strong decay in luminescence down to baseline”.

CCN(CC)C(=O)N[C@H]1C[C@@H]2c3cccc4[nH]cc(c34)C[C@H]2N(C)C1 [terguride, Terguride] was tested, and the EC50 (D2R) was 9.55 nM and the “efficacy compared with dopamine” value (D2R) was 24%.
